Assay results taken from ChEMBL document CHEMBL1909046, “DrugMatrix in vitro pharmacology data”.

What was measured:
[1] = DRUGMATRIX: Serotonin (5-Hydroxytryptamine) 5-HT3 radioligand binding (ligand: [3H] GR-65630); type: cell membranes, Membrane; conditions: hek293; Not Active = under 50% inhibition at 10 µM
[2] = target: Aldo-keto reductase family 1 member B1 (Rattus norvegicus, UniProt P07943); experiment: biochemical; type: tissue-based, Lens of camera-type eye;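 also: inhibition of aldose reductase enzyme activity, measured with DL-glyceraldehyde as the substrate; in other assays of this panel Not Active means under 50% inhibition at 10 µM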
[3] = target: 5-hydroxytryptamine receptor 2B (Homo sapiens, UniProt P41595); type: cell membranes, CHO-K1, Membrane; also: in other assays of this panel Not Active means under 50% inhibition at 10 µM
Sequence of 5-hydroxytryptamine receptor 2B (P41595 whole entry): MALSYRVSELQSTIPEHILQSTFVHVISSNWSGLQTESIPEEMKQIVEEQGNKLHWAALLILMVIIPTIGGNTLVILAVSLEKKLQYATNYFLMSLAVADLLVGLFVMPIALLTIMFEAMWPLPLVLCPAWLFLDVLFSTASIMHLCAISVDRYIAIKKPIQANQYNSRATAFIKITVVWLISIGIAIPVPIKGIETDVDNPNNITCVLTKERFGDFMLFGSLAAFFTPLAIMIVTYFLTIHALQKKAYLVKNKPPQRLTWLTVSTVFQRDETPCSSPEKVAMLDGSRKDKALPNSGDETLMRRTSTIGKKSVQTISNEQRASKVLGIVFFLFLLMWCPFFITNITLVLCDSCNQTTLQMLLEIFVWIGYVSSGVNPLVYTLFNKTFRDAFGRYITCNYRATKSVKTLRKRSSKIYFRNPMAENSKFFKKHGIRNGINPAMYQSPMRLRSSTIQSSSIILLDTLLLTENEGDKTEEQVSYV

Progesterone receptor = target: T1, Progesterone receptor (Bos taurus, UniProt Q690N0); experiment: DRUGMATRIX: Progesterone radioligand binding (ligand: [3H] R-5020); type: tissue-based, Uterus; conditions: Not Active = under 50% inhibition at 10 µM
T1 sequence (Q690N0 whole entry): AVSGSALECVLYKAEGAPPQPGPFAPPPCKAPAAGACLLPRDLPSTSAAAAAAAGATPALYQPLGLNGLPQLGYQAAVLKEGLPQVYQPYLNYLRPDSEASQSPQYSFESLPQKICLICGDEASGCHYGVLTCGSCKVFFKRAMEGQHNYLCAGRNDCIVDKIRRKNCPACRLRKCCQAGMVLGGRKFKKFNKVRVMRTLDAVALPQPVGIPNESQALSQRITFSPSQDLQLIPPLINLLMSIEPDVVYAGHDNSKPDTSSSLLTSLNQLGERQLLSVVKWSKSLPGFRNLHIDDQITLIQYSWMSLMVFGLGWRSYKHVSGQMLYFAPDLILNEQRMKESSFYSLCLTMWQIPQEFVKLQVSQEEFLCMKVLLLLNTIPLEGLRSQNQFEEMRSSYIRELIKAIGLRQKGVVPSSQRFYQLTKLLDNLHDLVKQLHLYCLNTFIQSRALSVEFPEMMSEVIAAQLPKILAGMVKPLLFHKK

[4] = target: T2, Muscarinic acetylcholine receptor M5 (Homo sapiens, UniProt P08912); type: cell membranes, CHO-K1, Membrane; also: in other assays of this panel Not Active means under 50% inhibition at 10 µM
T2 sequence (P08912 whole entry): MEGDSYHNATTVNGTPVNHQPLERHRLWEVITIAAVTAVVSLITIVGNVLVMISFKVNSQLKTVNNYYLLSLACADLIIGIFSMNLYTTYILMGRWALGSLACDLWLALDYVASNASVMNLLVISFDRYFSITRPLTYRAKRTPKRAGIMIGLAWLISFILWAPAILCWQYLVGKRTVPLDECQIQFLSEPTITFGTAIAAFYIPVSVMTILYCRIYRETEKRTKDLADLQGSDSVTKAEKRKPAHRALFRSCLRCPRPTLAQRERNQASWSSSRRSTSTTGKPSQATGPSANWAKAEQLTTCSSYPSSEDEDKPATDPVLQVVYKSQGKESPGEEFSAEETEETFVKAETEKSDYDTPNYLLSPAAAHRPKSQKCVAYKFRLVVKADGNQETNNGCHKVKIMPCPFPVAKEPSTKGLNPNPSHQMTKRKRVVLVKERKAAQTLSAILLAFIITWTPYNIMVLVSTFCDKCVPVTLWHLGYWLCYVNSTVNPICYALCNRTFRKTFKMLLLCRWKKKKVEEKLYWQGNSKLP

Caspase-1 = target: T3, Caspase-1 (Homo sapiens, UniProt P29466); parameters: species or system Escherichia coli;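 also: Caspase-1 enzyme inhibition assay with a peptide substrate; in other assays of this panel Not Active means under 50% inhibition at 10 µM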
T3 sequence (P29466 whole entry): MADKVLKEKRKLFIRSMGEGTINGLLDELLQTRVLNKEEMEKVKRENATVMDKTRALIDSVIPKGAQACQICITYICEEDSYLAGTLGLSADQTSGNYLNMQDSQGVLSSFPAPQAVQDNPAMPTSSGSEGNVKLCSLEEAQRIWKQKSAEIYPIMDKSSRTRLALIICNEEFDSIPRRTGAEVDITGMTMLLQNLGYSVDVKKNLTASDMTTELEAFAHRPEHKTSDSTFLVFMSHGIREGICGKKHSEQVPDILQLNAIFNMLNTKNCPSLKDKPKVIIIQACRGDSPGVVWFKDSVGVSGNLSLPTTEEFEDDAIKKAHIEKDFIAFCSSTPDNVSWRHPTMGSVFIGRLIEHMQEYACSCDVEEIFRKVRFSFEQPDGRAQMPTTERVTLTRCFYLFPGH

Molecule | IC50 [1] | Ki [1] | IC50 [2] | IC50 ([3]; cho-k1) | IC50 (Progesterone receptor) | IC50 ([4]; cho-k1) | IC50 (Caspase-1) | also measured
COc1nc(C)nc(Cl)c1NC1=NCCN1 [MOXONIDINE] | Not Active | Not Active | Not Active | Not Active | Not Active | Not Active | Not Active | –
N[C@@H](Cc1ccc(O)c(O)c1)C(=O)O [LEVODOPA] | Not Active | Not Active | Not Active | Not Active | Not Active | Not Active | Not Active | –
OCCN(CCO)c1nc(N2CCCCC2)c2nc(N(CCO)CCO)nc(N3CCCCC3)c2n1 [DIPYRIDAMOLE] | Not Active | Not Active | Not Active | Not Active | Not Active | Not Active | Not Active | –
Cn1ccnc1S [METHIMAZOLE] | Not Active | Not Active | Not Active | Not Active | Not Active | Not Active | Not Active | –
CC(=O)[C@@]1(O)CC[C@H]2[C@@H]3C[C@H](C)C4=CC(=O)CC[C@]4(C)[C@H]3CC[C@@]21C | Not Active | Not Active | Not Active | Not Active | – | Not Active | Not Active | IC50 (Progesterone receptor; read-out: IC50): 711 nM; Ki (Progesterone receptor; read-out: Ki): 93 nM
C=CCC1(C(C)CCC)C(=O)NC(=O)NC1=O (centres undefined) [SECOBARBITAL] | Not Active | Not Active | Not Active | Not Active | Not Active | Not Active | Not Active | –
C[C@@H]1CN(c2c(F)c(N)c3c(=O)c(C(=O)O)cn(C4CC4)c3c2F)C[C@H](C)N1 [SPARFLOXACIN] | Not Active | Not Active | Not Active | Not Active | Not Active | Not Active | Not Active | –
O=c1ncn2nc(Sc3ccc(F)cc3F)ccc2c1-c1c(Cl)cccc1Cl [NEFLAMAPIMOD] | Not Active | Not Active | Not Active | Not Active | Not Active | Not Active | Not Active | –
Nc1c2c(nc3ccccc13)CCCC2 [TACRINE] | Not Active | Not Active | Not Active | Not Active | Not Active | Not Active | Not Active | –
CO[C@H]1/C=C/O[C@@]2(C)Oc3c(C)c(O)c4c(O)c(c(/C=N/N5CCN(C)CC5)c(O)c4c3C2=O)NC(=O)/C(C)=C\C=C\[C@H](C)[C@H](O)[C@@H](C)[C@@H](O)[C@@H](C)[C@H](OC(C)=O)[C@@H]1C [RIFAMPIN] | Not Active | Not Active | Not Active | Not Active | Not Active | Not Active | – | IC50 (Caspase-1; read-out: IC50): 8320 nM
CCCCc1oc2ccccc2c1C(=O)c1cc(I)c(OCCN(CC)CC)c(I)c1 [AMIODARONE] | – | – | Not Active | – | Not Active | – | Not Active | IC50 ([4]; read-out: IC50): 1500 nM; Ki ([4]; read-out: Ki): 1080 nM
CCOC(=O)N1CCC(=C2c3ccc(Cl)cc3CCc3cccnc32)CC1 [LORATADINE] | Not Active | Not Active | Not Active | – | Not Active | Not Active | Not Active | –
N[C@@H](Cc1ccc(N(CCCl)CCCl)cc1)C(=O)O | Not Active | Not Active | Not Active | Not Active | Not Active | Not Active | Not Active | –
Cc1noc(NS(=O)(=O)c2ccc(N)cc2)c1C [SULFISOXAZOLE] | Not Active | Not Active | Not Active | Not Active | Not Active | Not Active | Not Active | –
N[C@@H](Cc1cc(I)c(Oc2ccc(O)c(I)c2)c(I)c1)C(=O)O [LIOTHYRONINE] | – | – | Not Active | Not Active | Not Active | Not Active | Not Active | –
c1ccc([C@H]2CN3CCSC3=N2)cc1 [LEVAMISOLE] | Not Active | Not Active | Not Active | Not Active | Not Active | Not Active | Not Active | –
CC1(C)O[C@@H]2C[C@H]3[C@@H]4CCC5=CC(=O)C=C[C@]5(C)[C@@]4(F)[C@@H](O)C[C@]3(C)[C@]2(C(=O)CO)O1 [TRIAMCINOLONE ACETONIDE] | Not Active | Not Active | Not Active | Not Active | – | Not Active | Not Active | IC50 (Progesterone receptor; read-out: IC50): 179 nM; Ki (Progesterone receptor; read-out: Ki): 23 nM
N#CC(C#N)=Cc1ccc(O)c(O)c1 [TYRPHOSTIN 23] | Not Active | Not Active | – | Not Active | Not Active | Not Active | Not Active | IC50 ([2]; read-out: IC50): 202 nM
Nc1nc2nc[nH]c2c(=S)[nH]1 [THIOGUANINE] | Not Active | Not Active | Not Active | Not Active | Not Active | Not Active | Not Active | –
NS(=O)(=O)c1cc2c(cc1Cl)NC(C(Cl)Cl)NS2(=O)=O (centres undefined) [TRICHLORMETHIAZIDE] | Not Active | Not Active | Not Active | Not Active | Not Active | Not Active | Not Active | –
CC(C)N1CCN(c2ccc(OCC3COC(Cn4cncn4)(c4ccc(Cl)cc4Cl)O3)cc2)CC1 (centres undefined) [TERCONAZOLE] | Not Active | Not Active | Not Active | Not Active | Not Active | – | Not Active | IC50 ([4]; read-out: IC50): 4360 nM; Ki ([4]; read-out: Ki): 3130 nM
CN1CCN(CCCN2c3ccccc3Sc3ccc(Cl)cc32)CC1 [PROCHLORPERAZINE] | – | – | Not Active | – | Not Active | – | Not Active | IC50 ([4]; read-out: IC50): 220 nM; Ki ([4]; read-out: Ki): 158 nM
CC(C)(C)NC(=O)[C@@H]1C[C@@H]2CCCC[C@@H]2CN1C[C@@H](O)[C@H](Cc1ccccc1)NC(=O)[C@H](CC(N)=O)NC(=O)c1ccc2ccccc2n1 | Not Active | Not Active | Not Active | Not Active | Not Active | Not Active | Not Active | –
SODIUM NITROPRUSSIDE | Not Active | Not Active | Not Active | Not Active | Not Active | Not Active | Not Active | Ki [2]: Not Active; Ki ([3]; cho-k1): Not Active; Ki (Progesterone receptor): Not Active; Ki ([4]; cho-k1): Not Active; Ki (Caspase-1): Not Active
NC[C@H]1CC[C@H](C(=O)O)CC1 [TRANEXAMIC ACID] | Not Active | Not Active | Not Active | Not Active | Not Active | Not Active | Not Active | –
CC/C(=C(\c1ccccc1)c1ccc(OCCN(C)C)cc1)c1ccccc1 [TAMOXIFEN] | – | – | Not Active | – | – | – | Not Active | IC50 ([3]; read-out: IC50): 2080 nM; Ki ([3]; read-out: Ki): 1330 nM; IC50 (Progesterone receptor; read-out: IC50): 19800 nM; Ki (Progesterone receptor; read-out: Ki): 2590 nM; IC50 ([4]; read-out: IC50): 2580 nM; Ki ([4]; read-out: Ki): 1860 nM
CC[C@@H](CO)NC(=O)[C@@H]1C=C2c3cccc4[nH]cc(c34)C[C@H]2N(C)C1 [METHYLERGONOVINE] | – | – | Not Active | – | Not Active | Not Active | Not Active | IC50 ([3]; read-out: IC50): 1.51 nM; Ki ([3]; read-out: Ki): 0.958 nM
Cc1nc2n(c(=O)c1CCN1CCC(c3noc4cc(F)ccc34)CC1)CCCC2 [RISPERIDONE] | – | – | Not Active | – | Not Active | Not Active | Not Active | –
